Data published in patent publication US5098935A, “Carcinostatic or antitumor antibiotic, conagenin, and production and uses thereof” (Zaidan Hojin Biseibutsu Kagaku Kenkyu Kai, priority 1989, dated 1992).
Entries after “also recorded” stand apart in the source; their conditions may differ.

Assays:
Solubility = format: physicochemical
Leukemia L1210 cells = assay: Effect on the surface of carcinoma cell membrane: binding of radiolabelled Concanavalin A to Leukemia L1210 cells; format: cell-based
Protocol: Each of the resulting suspensions was incubated in a CO2 -incubator (CO2 concentration:5%) at 37° C. for 2 days. A radioisotope-labelled Concanavalin A (Concanavalin A N-[acetyl-^3 H] acetylated; a product of Amersham Co., Ltd.) in an amount of 40 nCi/ml was added to the suspension under incubation at a time of one hour before the end of the incubation. The incubated cells were fixed on a filter paper by a cell harvester and the radioactivity value of the cells so fixed was measured by a liquid scintillation counter. The respective values thus given were converted assumed that the radioactivity value of the control group sample was amounting to 100, and the converted values are shown in Table 4 as the increase in binding of Concanavalin A to L1210 cells.

Acidic nature = format: physicochemical
[1] = test system: Ehrlich's solid carcinoma; assay: Inhibitory activity on Ehrlich's solid carcinoma in mice; format: in vivo, mice (ICR, female); conditions: for Percent inhibition (decrease in weight of solid carcinoma vs untreated control): once a day for 7 days from 7th day, weighed on 15th day
Protocol: (2) Inhibitory activity on Ehrlich's solid carcinoma in mice ICR mice (female, 6 weeks-aged, 4 mice in each group) were inoculated with Ehrlich's ascites carcinoma cells (2×10^6 per mouse in the form of a cell suspension) subcutaneously at the groin of the mice. After the 7th day from the inoculation of the carcinoma cells, an injectable solution of Conagenin was intraperitoneally injected into the carcinoma-bearing mice at a dosage of 6.25, 3.1, 1.56, 0.78, 0.39 and 0.195 mg/Kg once a day during the consecutive 7 days for each group of mice. On the 15th day from the inoculation of the carcinoma cells, the solid carcinoma so grown was cut off and the weight of the solid carcinoma was determined. Control test was conducted using 8 mice of the same type as above in a usual manner. Percent inhibition of the proliferation of the solid carcinoma, i.e. the percent decrease in the weight of the solid carcinoma in each treated group of mice administered with Conagenin as compared to that in the control group of mice (untreated), is callculated and shown in Table 3 below.

[2] = Acute toxicity (LD50), intraperitoneal administration to female ICR mice; conditions: mouse, in vivo
Protocol: Toxicity of Conagenin was tested by intraperitoneal administration to female ICR mice and estimated as its LD50 being higher than 50 mg/Kg.

For `CC(O)C(C)C(O)C(=O)NC(C)(CO)C(=O)O` (centres unmarked) [Conagenin], the Solubility in chloroform (Solubility; chloroform) was “insoluble; also recorded: sparingly soluble”, the Solubility in methanol (Solubility; methanol) was “readily soluble; also recorded: Easily soluble” and the Solubility in water (Solubility; water) was “soluble in water”. For the same molecule, the “binding of Concanavalin A to L1210 cells (in words)” value (Leukemia L1210 cells) was “could increase the binding of Concanavalin A to L1210 cells”, the activity at 0.25 µg/mL (Leukemia L1210 cells; Mus musculus, L1210, 48 h, 0.25 μg/ml, 37° C., 2 days, control group = 100, read-out: Increase in binding of Concanavalin A) was under 100% and the activity at 0.5 µg/mL (Leukemia L1210 cells; Mus musculus, L1210, 48 h, 0.5 μg/ml, 37° C., 2 days, control group = 100, read-out: Increase in binding of Concanavalin A) was 129%. For the same molecule, the activity at 1 µg/mL (Leukemia L1210 cells; Mus musculus, L1210, 48 h, 1.0 μg/ml, 37° C., 2 days, control group = 100, read-out: Increase in binding of Concanavalin A) was 121%, the “acidity (in words)” value (Acidic nature) was “weakly acidic” and the “Percent inhibition (decrease in weight of solid carcinoma vs untreated control)” value ([1]; 0.195 mg/Kg/day i.p.) was 44%. For the same molecule, the “Percent inhibition (decrease in weight of solid carcinoma vs untreated control)” value ([1]; 0.39 mg/Kg/day i.p.) was 29%, the “Percent inhibition (decrease in weight of solid carcinoma vs untreated control)” value ([1]; 0.78 mg/Kg/day i.p.) was 58% and the “Percent inhibition (decrease in weight of solid carcinoma vs untreated control)” value ([1]; 1.56 mg/Kg/day i.p.) was 44%. The “Percent inhibition (decrease in weight of solid carcinoma vs untreated control)” value ([1]; 3.1 mg/Kg/day i.p.) was 67%, the “Percent inhibition (decrease in weight of solid carcinoma vs untreated control)” value ([1]; 6.25 mg/Kg/day i.p.) was 45% and the “carcinostatic or antitumor activity in vivo (in words)” value ([1]; Ehrlich's solid carcinoma in mice) was “significant carcinostatic or antitimor activity; also recorded: significant carcinostatic or antitumor activity in vivo”. The “toxicity (in words)” value [2] was “low toxicity” and the LD50 ([2]; ip, intraperitoneal, female ICR mice) was over 50 mg/kg.
